# Measurements published in PMC2364952, “The Anti-Inflammatory Activity of Boron Derivatives in Rodents” (Metal-Based Drugs, 1995).
# How the values were obtained:
# [1] = biological target: prostaglandin cyclooxygenase; experiment: Prostaglandin cyclooxygenase activity, macrophages; type: cell-based, mouse (J774 macrophages); conditions: Table 7
# [2] = system: trypsin; experiment: Trypsin proteolytic activity, mouse macrophages; type: cell-based, mouse (J774 macrophages); conditions: Table 5; read-out: IC50 Trypsin, Mouse Macrophage
# [3] = system: acetic acid induced stretch reflex; experiment: Local analgesic screen (acetic acid writhing); type: in vivo, CF1 mice; conditions: for Mice Writhing Reflex: 8 mg/kg I.P., Table 2; for reduction of the reflex action: mice, acetic acid induced local pain, 8 mg/kg
# [4] = system: cathepsin; experiment: Cathepsin activity, mouse macrophages; type: cell-based, mouse (J774 macrophages); conditions: Table 3; read-out: IC50 Cathepsin, Mouse Macrophage
# [5] = biological target: acid phosphatase; experiment: Acid phosphatase activity, mouse macrophages; type: cell-based, mouse (J774 macrophages); conditions: Table 3; read-out: IC50 Acid Phosphatase, Mouse Macrophage
# [6] = system: neutral cathepsin; experiment: Cathepsin activity, UMR-106 osteosarcoma cells; type: cell-based; conditions: Table 6; read-out: IC50 Neutral Cathepsin, Rat UMR-106 Bone Osteosarcoma
# [7] = system: trypsin; experiment: Trypsin activity, UMR-106 osteosarcoma cells; type: cell-based; conditions: Table 6; read-out: IC50 Trypsin, Rat UMR-106 Bone Osteosarcoma
# [8] = biological target: elastase; experiment: Elastase activity, mouse macrophages; type: cell-based, mouse (J774 macrophages); conditions: Table 5; read-out: IC50 Elastase, Mouse Macrophage
# [9] = system: elastase; experiment: Elastase activity, UMR-106 osteosarcoma cells; type: cell-based; conditions: Table 6; read-out: IC50 Elastase, Rat UMR-106 Bone Osteosarcoma
# [10] = system: carrageenan-induced inflammation of paw; experiment: Carrageenan-induced paw edema, rats; type: in vivo, Sprague Dawley male rats; conditions: for Rat Inflammatory: 8 mg/kg x 2, I.P., Table 2;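 as to Rat Inflammatory: paw weight increase as percent of control rats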
# [11] = system: carrageenan-induced pleural fluid; experiment: Anti-pleurisy screen; type: in vivo, Sprague Dawley male rats; conditions: for pleurisy edema in rats: 8 mg/kg; for Rat Pleurisy: rats, 8 mg/kg I.P., 1 h before and 3 h after carrageenan, Table 2;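 as to Rat Pleurisy: Pleural fluid volume as percent of control rats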
# [12] = system: adjuvant (M. butyricum) arthritis; experiment: Chronic adjuvant arthritic screen; type: in vivo; conditions: rats; for Rat Chronic Arthritis: 8 mg/kg/day I.P., Day 3 to Day 21, Table 2
# [13] = system: tail flick response to heat; experiment: Hot plate tail flick screen; type: in vivo, CF1 male mice; conditions: for Mice Tail Flick: 8 mg/kg I.P., hot plate, Table 2; for tail flick assay time: mice, 8 mg/kg
# [14] = biological target: aryl sulphatase; experiment: Aryl sulfatase activity, mouse macrophages; type: cell-based, mouse (J774 macrophages); conditions: Table 3; read-out: IC50 Aryl Sulfatase, Mouse Macrophage
# [15] = biological target: T1, 5'-lipoxygenase (Homo sapiens, UniProt P09917); experiment: 5'-Lipoxygenase activity, human leukocytes; type: cell-based; conditions: Table 7
# T1 construct: endogenous in cells; host or cells: RMPI 1788 human leukocytes
# T1 sequence (P09917 1-674): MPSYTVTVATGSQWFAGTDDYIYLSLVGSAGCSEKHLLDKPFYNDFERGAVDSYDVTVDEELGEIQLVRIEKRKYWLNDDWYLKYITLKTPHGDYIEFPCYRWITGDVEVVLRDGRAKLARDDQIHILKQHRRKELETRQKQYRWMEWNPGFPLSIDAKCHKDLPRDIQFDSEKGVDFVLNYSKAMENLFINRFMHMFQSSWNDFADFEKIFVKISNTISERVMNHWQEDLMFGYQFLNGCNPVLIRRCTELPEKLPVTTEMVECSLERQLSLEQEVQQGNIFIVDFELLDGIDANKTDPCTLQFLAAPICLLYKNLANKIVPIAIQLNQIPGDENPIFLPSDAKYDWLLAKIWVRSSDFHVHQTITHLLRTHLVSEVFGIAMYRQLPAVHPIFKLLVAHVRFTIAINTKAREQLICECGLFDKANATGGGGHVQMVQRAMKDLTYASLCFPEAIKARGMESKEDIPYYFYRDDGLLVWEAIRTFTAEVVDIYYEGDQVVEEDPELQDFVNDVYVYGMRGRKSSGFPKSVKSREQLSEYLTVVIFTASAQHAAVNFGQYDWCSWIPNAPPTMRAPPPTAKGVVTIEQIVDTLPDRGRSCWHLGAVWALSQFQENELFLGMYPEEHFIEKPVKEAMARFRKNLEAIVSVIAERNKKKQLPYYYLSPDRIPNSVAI
# [16] = biological target: T2, 5'-lipoxygenase (Mus musculus, UniProt P48999); experiment: 5'-Lipoxygenase activity, mouse macrophages; type: cell-based; conditions: Table 7; read-out: IC50 5'-Lipoxygenase, Mouse Macrophage
# T2 construct: endogenous in cells; host or cells: mouse macrophages (J774A as maintained above)
# T2 sequence (P48999 1-674): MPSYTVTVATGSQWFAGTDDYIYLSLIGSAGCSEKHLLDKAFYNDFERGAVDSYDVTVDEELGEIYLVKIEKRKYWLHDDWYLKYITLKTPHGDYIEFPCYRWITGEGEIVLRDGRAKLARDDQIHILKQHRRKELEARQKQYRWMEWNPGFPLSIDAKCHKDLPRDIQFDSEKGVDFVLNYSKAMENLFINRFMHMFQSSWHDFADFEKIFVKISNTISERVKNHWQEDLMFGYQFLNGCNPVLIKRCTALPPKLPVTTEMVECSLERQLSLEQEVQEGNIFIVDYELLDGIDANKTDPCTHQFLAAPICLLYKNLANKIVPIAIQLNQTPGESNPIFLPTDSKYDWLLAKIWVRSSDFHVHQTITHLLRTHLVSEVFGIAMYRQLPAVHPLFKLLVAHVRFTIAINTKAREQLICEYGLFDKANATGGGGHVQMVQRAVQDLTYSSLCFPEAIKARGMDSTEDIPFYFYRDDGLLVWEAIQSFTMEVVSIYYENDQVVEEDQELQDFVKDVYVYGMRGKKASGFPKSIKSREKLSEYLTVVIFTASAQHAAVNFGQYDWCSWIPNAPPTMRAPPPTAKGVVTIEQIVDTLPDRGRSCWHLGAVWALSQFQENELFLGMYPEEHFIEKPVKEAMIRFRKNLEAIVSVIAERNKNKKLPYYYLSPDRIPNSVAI
# [17] = system: prostaglandin cyclooxygenase; experiment: Prostaglandin cyclooxygenase activity, Be Sal cells; type: cell-based, human (Be Sal osteofibrolytic cells); conditions: Table 7; read-out: IC50 Prostaglandin Cyclooxygenase, Be Sal Osteofibro
# [18] = biological target: T3, prostaglandin cyclooxygenase (Bos taurus, UniProt O62664); experiment: Prostaglandin synthetase from bovine seminal vesicles; type: biochemical; conditions: Table 7; read-out: IC50 Prostaglandin Cyclooxygenase, Beef Seminal Vesicle
# T3 construct: purified commercial prostaglandin synthetase from bovine seminal vesicles (Miles Research Products); purchased Miles Research Products; host or cells: bovine seminal vesicles (tissue preparation)
# T3 sequence (O62664 25-600): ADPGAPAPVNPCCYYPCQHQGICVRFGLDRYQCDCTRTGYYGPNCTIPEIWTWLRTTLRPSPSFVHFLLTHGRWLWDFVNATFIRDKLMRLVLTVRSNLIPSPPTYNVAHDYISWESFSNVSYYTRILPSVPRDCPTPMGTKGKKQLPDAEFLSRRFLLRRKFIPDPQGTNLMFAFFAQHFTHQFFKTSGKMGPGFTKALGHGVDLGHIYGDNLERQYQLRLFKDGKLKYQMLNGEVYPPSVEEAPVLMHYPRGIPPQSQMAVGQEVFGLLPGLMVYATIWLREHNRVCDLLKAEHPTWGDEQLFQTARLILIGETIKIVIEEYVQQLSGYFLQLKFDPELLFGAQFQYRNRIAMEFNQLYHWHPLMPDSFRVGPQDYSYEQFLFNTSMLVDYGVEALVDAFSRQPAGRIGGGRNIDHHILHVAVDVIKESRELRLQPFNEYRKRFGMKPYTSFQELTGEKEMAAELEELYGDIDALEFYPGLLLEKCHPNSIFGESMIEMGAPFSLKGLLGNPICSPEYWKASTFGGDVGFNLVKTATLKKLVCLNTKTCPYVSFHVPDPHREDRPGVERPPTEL
# [19] = system: carrageenan-induced inflammation of hind foot; experiment: Carrageenan-induced foot edema, mice; type: in vivo, CF1 male mice; conditions: mice; for reduction of induced edema: 8 mg/kg x 2, I.P., carrageenan
Compound,IC50 [1] [µM],IC50 [2] [µM],Mice Writhing Reflex [3],reduction of the reflex action [3],IC50 [4] [µM],IC50 [5] [µM],IC50 [6] [µM],IC50 [7] [µM],IC50 [8] [µM],IC50 [9] [µM],Rat Inflammatory [10],Rat Pleurisy [11],Mice Tail Flick [13],tail flick assay time [13],IC50 [14] [µM],IC50 [17] [µM],further results
[BH3-][NH2+]C(C)(C)C [Compound 1],4.19,2.09,19 % of control,80%,4.62,8.08,4.67,7.74,0.22,9.26,–,–,–,–,–,–,–
C[NH2+][BH2-]C(=O)O [Compound 2],3.5,2.34,31 % of control,at least 45%,9.45,0.9,5.82,9.89,2.32,8.94,70 % of control,61 % of control,147 % of control,increased,8.3,–,pleurisy edema in rats [11]: reduced significantly; activity in chronic arthritis screen ([12]; 8 mg/kg/day): significantly active; Rat Chronic Arthritis [12]: 53 % of control
COC(=O)[BH2-][NH+](C)C [Compound 15],2.81,2.78,12 % of control,80%,6.71,1.04,6.1,6.57,2.14,9.74,59 % of control,86 % of control,147 % of control,increased,7.41,4.24,reduction in induced edema in rats ([10]; 8 mg/kg x 2): at least 40%; IC50 [15]: 5.37 µM; IC50 [16]: 6.61 µM; IC50 [18]: 2.86 µM; anti-inflammatory activity in mouse edema screen ([19]; 8 mg/kg x 2): less active
CCOC(=O)[BH2-][NH+](C)C [Compound 20],–,2.02,–,at least 45%,3.94,1.12,6.62,9.18,3.28,10.3,–,61 % of control,–,–,9.27,–,pleurisy edema in rats [11]: reduced significantly; reduction of pannus ([12]; 8 mg/kg/day): greater than 75%; Rat Chronic Arthritis [12]: 13 % of control
C[NH+](C)[BH2-]C#N [Compound 33],5.92,2.44,15 % of control,80%,5.54,1.13,6.24,7.54,2.53,9.04,61 % of control,–,–,–,9.02,–,IC50 [15]: 3.47 µM; IC50 [16]: 9.89 µM
CCCCCCCCCCCCCCCC[N+](C)(C)[BH2-]C#N [Compound 35],–,2.69,16 % of control,80%,4.97,0.33,6.31,7.28,2.75,9.19,–,–,–,–,7.16,–,–
C[N+](C)(C)[BH2-]C(C#N)c1ccccc1 (stereo not shown) [Compound 46],6.59,2.4,46 % of control,at least 45%,2.57,7.72,–,–,5.21,–,–,–,191 % of control,increased,3.4,2.33,IC50 [18]: 0.71 µM
CC[N+]#C[BH2-][N+](C)(C)C.F[B-](F)(F)F [Compound 74],1.52,1.83,40 % of control,at least 45%,9.13,1.31,6.55,10.5,2.32,10,81 % of control,–,–,–,6.03,–,reduction of induced edema [19]: at least 40%
C[N+](C)(C)[BH2-]C(=O)NO.Cl [Compound 77],7.72,2.14,41 % of control,at least 45%,5.13,6.59,–,–,1.49,–,–,–,139 % of control,–,1.4,1.09,–
O=C(O)[BH2-][NH+]1CCOCC1 [Compound 83],–,2.37,–,–,1.76,0.16,5.41,9.89,0.96,8.09,–,–,–,–,7.59,–,reduction of induced edema [19]: at least 30%
